Laboratory results taken from PMC7726757 (ACS Omega, 2020).

Tests used:
Assay in all cases: Isothermal titration calorimetry
Pm-NanK = biological target: T1, Pm-NanK (Pasteurella multocida, UniProt Q9CKB3, M259T); assay type: binding, P. multocida
T1 sequence (Q9CKB3 1-297 M259T): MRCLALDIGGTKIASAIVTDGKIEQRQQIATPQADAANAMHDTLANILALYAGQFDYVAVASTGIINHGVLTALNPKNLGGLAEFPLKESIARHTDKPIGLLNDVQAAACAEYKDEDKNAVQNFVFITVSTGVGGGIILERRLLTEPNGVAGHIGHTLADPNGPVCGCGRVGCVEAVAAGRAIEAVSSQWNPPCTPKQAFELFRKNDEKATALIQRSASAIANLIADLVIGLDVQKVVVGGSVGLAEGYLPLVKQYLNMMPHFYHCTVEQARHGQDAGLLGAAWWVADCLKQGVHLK

Vc-NanK = biological target: T2, Vc-NanK (Vibrio cholerae serotype O1, UniProt Q9KR61); assay type: binding, V. cholera
T2 sequence (Q9KR61 1-287): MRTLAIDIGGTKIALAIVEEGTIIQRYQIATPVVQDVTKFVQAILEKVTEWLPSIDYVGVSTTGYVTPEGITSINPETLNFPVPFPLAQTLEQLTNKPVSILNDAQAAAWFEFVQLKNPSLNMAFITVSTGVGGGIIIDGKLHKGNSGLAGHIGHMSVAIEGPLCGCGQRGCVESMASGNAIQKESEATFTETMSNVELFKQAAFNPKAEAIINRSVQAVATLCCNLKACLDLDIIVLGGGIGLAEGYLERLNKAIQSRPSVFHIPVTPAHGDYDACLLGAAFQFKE

Hi-NanK = biological target: T3, Hi-NanK (Haemophilus influenzae, UniProt Q4QP43); assay type: binding, H. influenzae
T3 sequence (Q4QP43 1-300): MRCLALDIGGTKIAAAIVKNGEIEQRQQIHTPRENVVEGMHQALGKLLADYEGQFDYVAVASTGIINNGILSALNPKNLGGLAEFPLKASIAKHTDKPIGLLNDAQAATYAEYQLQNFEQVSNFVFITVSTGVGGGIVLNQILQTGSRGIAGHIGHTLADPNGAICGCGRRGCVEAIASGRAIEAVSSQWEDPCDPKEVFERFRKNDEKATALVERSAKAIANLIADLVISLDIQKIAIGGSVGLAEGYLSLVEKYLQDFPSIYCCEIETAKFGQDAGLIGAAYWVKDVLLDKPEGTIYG

Fn-NanK = biological target: T4, Fn-NanK (Fusobacterium nucleatum, UniProt Q8RDN7); assay type: binding, F. nucleatum; settings: Fn-NanK wild type
T4 sequence (Q8RDN7 1-291): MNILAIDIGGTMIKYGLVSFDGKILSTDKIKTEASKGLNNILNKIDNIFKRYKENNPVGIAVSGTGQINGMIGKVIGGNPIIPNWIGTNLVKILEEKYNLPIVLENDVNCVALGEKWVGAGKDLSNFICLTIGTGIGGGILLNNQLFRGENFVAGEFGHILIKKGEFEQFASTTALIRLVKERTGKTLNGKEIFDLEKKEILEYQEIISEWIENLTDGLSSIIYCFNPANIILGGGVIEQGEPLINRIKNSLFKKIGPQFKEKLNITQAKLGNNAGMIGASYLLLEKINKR

[1] = Hi-NanK wild type, ligand alone
[2] = Hi-NanK, in the presence of ManNAc

## Nc1ncnc2c1ncn2[C@@H]1O[C@H](COP(=O)(O)OP(=O)(O)NP(=O)(O)O)[C@@H](O)[C@H]1O [AMPPNP, adenylyl-imidodiphosphate]
Pm-NanK; in the presence of ManNAc
  Kd: 112 ± 14.5 µM
  TΔS: 1.1 kcal/mol
  ΔH: –4.3 ± 0.35 Kcal/mol
Pm-NanK; ligand alone
  Kd: no measurable binding
Vc-NanK; in the presence of ManNAc
  Kd: 44 ± 9.2 µM
  TΔS: 3.814 kcal/mol
  ΔH: –2.1 ± 0.482 Kcal/mol
Vc-NanK; ligand alone
  Kd: no measurable binding
Hi-NanK; [1]
  Kd: 53 ± 6.4 µM
  TΔS: –1.85 Kcal/mol
  ΔH: –7.7 ± 2.44 Kcal/mol
Hi-NanK; [2]
  Kd: 72 ± 12 µM
  TΔS: 1.94 kcal/mol
  ΔH: –3.7 ± 0.68 Kcal/mol
Fn-NanK; in the presence of ManNAc
  Kd: 35 ± 1.12 µM
  TΔS: –2.87 Kcal/mol
  ΔH: –8.94 ± 0.18 Kcal/mol
Fn-NanK; ligand alone
  Kd: 61 ± 7.48 µM
  TΔS: 2.13 kcal/mol
